One compound from US20030161827A1, “Therapies that improve graft survival” (priority 2000, published 2003) can be followed below.

The subject of the test is renal allograft. Kind of test: Unilateral renal transplantation, mAb and sirolimus (Example 2). The class given is in vivo, monkey. The following applies: n=4 per group; treatment until day 56, followed until day 119.

Description: Unilateral renal transplantation was performed in 12 blood group matched and MLR mismatched animals. […] Sirolimus was administered by daily gavage at 1 mg/kg at day 0 to day 13 and then 0.5 mg/kg from day 13 to day 56. All animals were off immunosuppression after day 56 and were then followed until day 119.

Consider `CO[C@H]1C[C@@H]2CC[C@@H](C)[C@@](O)(O2)C(=O)C(=O)N2CCCC[C@H]2C(=O)O[C@H]([C@H](C)C[C@@H]2CC[C@@H](O)[C@H](OC)C2)CC(=O)[C@H](C)/C=C(\C)[C@@H](O)[C@@H](OC)C(=O)[C@H](C)C[C@H](C)/C=C/C=C/C=C/1C` [sirolimus], for which the mean survival was found to be 23 days.
